pKi: −log10 of the molar value. Where “and” joins values, the source holds several entries; their conditions need not be identical. Equal values may be shown once. Read-outs that look alike come from different tables or passages of the source.
How the values were obtained:
hA1AR [1] = molecular target: T1, hA1AR (Homo sapiens, UniProt P30542); assay: hA1AR radioligand binding, CHO cell membranes; conditions: for hA1AR selectivity compared to hA3AR: ratio of binding Ki
T1 sequence (P30542 1-326): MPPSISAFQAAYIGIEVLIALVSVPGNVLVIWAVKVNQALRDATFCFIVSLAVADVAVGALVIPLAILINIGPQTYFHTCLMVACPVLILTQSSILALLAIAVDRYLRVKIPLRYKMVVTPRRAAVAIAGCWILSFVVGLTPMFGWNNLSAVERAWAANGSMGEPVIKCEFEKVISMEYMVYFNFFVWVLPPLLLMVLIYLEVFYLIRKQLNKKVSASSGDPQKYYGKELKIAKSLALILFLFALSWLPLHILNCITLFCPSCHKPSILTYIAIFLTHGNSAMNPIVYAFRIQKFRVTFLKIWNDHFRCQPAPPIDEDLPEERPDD

wild-type C57BL/6J mice [2] = assay: Body temperature and locomotor activity by telemetry after ip. dosing; type: in vivo, mouse; conditions: for Effect on Tb in WT mice: ip., up to 3 or 10 mg/kg
wild-type C57BL/6J mice [3] = conditions: average from dosing to 60 min, ref [30], cited from earlier work
A1AR, A3AR [4] = conditions: ref [30]; cited from earlier work
anesthetized rat = assay: Cardiovascular effects in the anesthetized rat; type: in vivo; conditions: 0.02 mg/kg, iv., preliminary
mA1AR = molecular target: T2, mA1AR (Mus musculus, UniProt Q60612); assay: mA1AR radioligand binding; conditions: ratio of binding Ki
T2 sequence (Q60612 1-326): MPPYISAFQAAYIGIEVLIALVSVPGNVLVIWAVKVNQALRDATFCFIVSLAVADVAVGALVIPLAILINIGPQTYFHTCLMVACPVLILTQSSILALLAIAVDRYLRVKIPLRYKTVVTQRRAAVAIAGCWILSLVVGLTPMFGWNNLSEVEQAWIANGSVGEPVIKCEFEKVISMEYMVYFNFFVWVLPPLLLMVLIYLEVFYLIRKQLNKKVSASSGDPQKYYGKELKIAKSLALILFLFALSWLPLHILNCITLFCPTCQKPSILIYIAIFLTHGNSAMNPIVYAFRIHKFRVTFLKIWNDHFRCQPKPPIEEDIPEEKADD

[5] = test system: off-target receptors and transporters; assay: PDSP off-target screen; type: binding, human
hA2BAR = molecular target: T3, hA2BAR (Homo sapiens, UniProt P29275); assay: hA2BAR radioligand binding using [3H]54; conditions: read-out: hA2BAR % binding inhibition at 10 μM
T3 sequence (P29275 1-332): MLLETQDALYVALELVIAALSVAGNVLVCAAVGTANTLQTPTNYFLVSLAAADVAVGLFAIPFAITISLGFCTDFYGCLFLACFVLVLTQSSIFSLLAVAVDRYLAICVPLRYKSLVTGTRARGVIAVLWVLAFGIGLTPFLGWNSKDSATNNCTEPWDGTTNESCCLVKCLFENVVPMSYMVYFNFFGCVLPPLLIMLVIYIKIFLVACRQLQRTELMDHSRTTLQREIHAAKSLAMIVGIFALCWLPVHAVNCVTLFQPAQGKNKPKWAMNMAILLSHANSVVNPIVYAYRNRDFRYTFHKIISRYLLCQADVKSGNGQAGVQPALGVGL

hA1AR [6] = molecular target: T1, hA1AR; conditions: human (h); at 10 μM; ref [33],[34]; cited from earlier work
mice = assay: Hypothermia after intracerebroventricular infusion; type: in vivo, mouse
A1AR, A3AR [7] = assay: Hypothermia in A1AR, A3AR and A1AR/A3AR deficient mice; type: in vivo, mouse; conditions: 3 mg/kg ip.
bovine A1AR = conditions: read-out: Ki at bovine A1AR; ref [36],[37]; cited from earlier work

OC[C@H]1O[C@@H](n2cnc3c(NC(C4CCC4)C4CCC4)nc(Cl)nc32)[C@H](O)C1O (stereo in doubt) [Compound 12, (2R,3R,4R,5R)-2-(2-Chloro-6-((dicyclobutylmethyl)amino)-9H-purin-9-yl)-5-(hydroxymethyl)tetrahydrofuran-3,4-diol]
hA1AR affinity relative to 9 (hA1AR [1]; lower affinity than 9): 8 fold | hA1AR selectivity compared to hA3AR (hA1AR [1]): 742 fold | Tb (wild-type C57BL/6J mice [2]; 3 mg/kg ip., average from dosing to 60 min, mean ±SD): 35.5±0.8 °C

OC[C@H]1O[C@@H](n2cnc3c(NC4CCCC4)ncnc32)[C@H](O)[C@@H]1O [Compound 1a]
Tb (wild-type C57BL/6J mice [3]; 1 mg/kg ip.): 32.4±0.5 °C | ARs causing hypothermia (A1AR, A3AR [4]): A3AR > A1AR[30]

OC[C@H]1O[C@@H](n2cnc3c(NC4CCCC4)nc(Cl)nc32)[C@H](O)[C@@H]1O [Compound 2]
Effect on blood pressure (anesthetized rat): sustained rise in blood pressure

O[C@@H]1[C@H](O)[C@@H](CCl)O[C@H]1n1cnc2c(NC3C[C@H]4CC[C@@H]3C4)ncnc21 (stereo partly drawn) [Compound 4]
Tb (wild-type C57BL/6J mice [3]; 3 mg/kg ip.): 32.2±1.3 °C | ARs causing hypothermia (A1AR, A3AR [4]): A1AR > A3AR[30]

O[C@@H]1[C@H](O)[C@@H](CCl)O[C@H]1n1cnc2c(NC(C3CCC3)C3CCC3)ncnc21 [Compound 10, (2S,3S,4R,5R)-2-(Chloromethyl)-5-(6-((dicyclobutylmethyl)amino)-9H-purin-9-yl)tetrahydrofuran-3,4-diol]
hA1AR selectivity compared to hA3AR (hA1AR [1]): 3390 fold | mA1AR selectivity compared to mA3AR (mA1AR): 2970 fold and > 2000 fold

CNC(=O)[C@H]1O[C@@H](n2cnc3c(N)ncnc32)[C@H](O)[C@@H]1O [Compound 15, reference compound]
Off-target, receptor: interactions found [5]: none

CCNC(=O)[C@H]1O[C@@H](n2cnc3c(N)ncnc32)[C@H](O)[C@@H]1O [Compound 16, reference compound]
Off-target, receptor: interactions found [5]: none

O[C@@H]1[C@H](O)[C@@H]2C[C@@H]2[C@H]1n1cnc2c(NC(C3CCC3)C3CCC3)nc(Cl)nc21 [Compound 19]
inhibition at 10 µM (hA2BAR): 24%

O[C@@H]1[C@H](O)[C@@H]2C[C@@H]2[C@H]1n1cnc2c(NC(C3CCCC3)C3CCCC3)nc(Cl)nc21 [Compound 20]
A1AR % inhibition (hA1AR [6]): 34±3% (h)

Nc1nc(Cl)nc2c1ncn2[C@H]1[C@H](O)[C@H](O)[C@]2(CCl)C[C@H]12 [Compound 22]
hA1AR affinity relative to 21 (hA1AR [1]; higher affinity than parent 21): 14 fold

OC[C@@]12C[C@@H]1[C@@H](n1cnc3c(NC(C4CCC4)C4CCC4)ncnc31)[C@H](O)[C@@H]2O [Compound 24, (1R,2R,3S,4R,5S)-4-(6-((Dicyclobutylmethyl)amino)-9H-purin-9-yl)-1-(hydroxymethyl)bicyclo[3.1.0]hexane-2,3-diol]
A1AR selectivity (hA1AR [1]; abstract, species and comparator not stated): ~ 400 fold | Effect on Tb after icv. administration (mice; 1.67 μg/mouse icv. (= […])): reduced Tb only slightly | Tb reached after icv. administration (mice; 5 μg injected icv. (equivalent to […])): ~ 24 °C

O[C@H]1[C@H](n2cnc3c(NC(C4CCC4)C4CCC4)ncnc32)[C@H]2C[C@@]2(CCl)[C@H]1O [Compound 26, (1S,2R,3S,4R,5S)-1-(Chloromethyl)-4-(6-((dicyclobutylmethyl)amino)-9H-purin-9-yl)bicyclo[3.1.0]hexane-2,3-diol]
hA1AR selectivity compared to hA3AR (hA1AR [1]): ~ 300 fold | mA1AR selectivity compared to mA3AR (mA1AR): 890 fold

OC[C@@]12C[C@@H]1[C@@H](n1cnc3c(N[C@H]4C[C@H]5CC[C@@H]4C5)nc(Cl)nc31)[C@H](O)[C@@H]2O [Compound 29, (1R,2R,3S,4R,5S)-4-(6-(((1R,2S,4S)-Bicyclo[2.2.1]heptan-2-yl)amino)-2-chloro-9H-purin-9-yl)-1-(hydroxymethyl)bicyclo[3.1.0]hexane-2,3-diol]
hA1AR selectivity compared to hA3AR (hA1AR [1]): 12 fold | Effect on Tb in WT mice (wild-type C57BL/6J mice [2]): hypothermic effect | Receptor dependence of hypothermia (A1AR, A3AR [7]; A1AR KO, A3AR KO, double KO mice): via both central A1AR and peripheral A3AR | ARs causing hypothermia (A1AR, A3AR [7]; WT vs AR-KO mice (Figure 2)): A3AR > A1AR (Figure 2)

OC[C@@]12C[C@@H]1[C@@H](n1cnc3c(N[C@H]4C[C@H]5CC[C@@H]4C5)nc(Cl)cc31)[C@H](O)[C@@H]2O [Compound 30]
Off-target, receptor: interactions found [5]: none

O[C@H]1[C@H](n2cnc3c(N[C@H]4C[C@H]5CC[C@@H]4C5)nc(Cl)nc32)[C@H]2C[C@@]2(CCl)[C@H]1O [Compound 31, (1S,2R,3S,4R,5S)-4-(6-(((1R,2S,4S)-Bicyclo[2.2.1]heptan-2-yl)amino)-2-chloro-9H-purin-9-yl)-1-(chloromethyl)bicyclo[3.1.0]hexane-2,3-diol]
hA1AR selectivity compared to hA3AR (hA1AR [1]): 10 fold | Off-target, receptor: interactions found [5]: none | Effect on Tb in WT mice (wild-type C57BL/6J mice [2]): did not significantly induce hypothermia

CCOC(=O)[C@@]12C[C@@H]1[C@@H](n1cnc3c(NC(C4CCC4)C4CCC4)nc(Cl)nc31)[C@H](O)[C@@H]2O [Compound 35]
inhibition at 10 µM (hA2BAR): 38%

NC(=O)c1ncn([C@@H]2O[C@H](CO)[C@@H](O)[C@H]2O)n1 [Compound 38, ribavirin, reference compound]
inhibition at 10 µM (hA2BAR): 39% | pKi (bovine A1AR): 4.07

NC(=O)c1ncn([C@H]2[C@H](O)[C@H](O)[C@]3(CO)C[C@H]23)n1 [Compound 40]
hA1AR affinity relative to 38 (hA1AR [1]; greater affinity than riboside 38): 15 fold | mA1AR selectivity compared to mA3AR (mA1AR): 25.2 nM (~400) fold
